US5281602A, “Angiotensin II receptor blocking 2,3,6-substituted 5,6,7,8-tetrahydro-pyrido[4,3-D]pyrimidin-4(3H)-ones” (American Cyanamid Company, priority 1993, dated 1994)
“And” between values parts separate entries of the source, which are not always exact repeats. Equal values may be shown once.

Columns and labels:
Angiotension II Receptor = experiment: Receptor Binding Assay: competition with [^125 I] (Sar^1,Ile^8) AngII on microsomal membranes; details: pH 7.4, 60 min, room temperature
Experimental: Binding of [^125 I] (Sar^1,Ile^8) AngII
The binding of [^125 I] (Sar^1,Ile^8) AngII to microsomal membranes is initiated by the addition of reconstituted membranes (1:10 vols.) in freshly made 50.0 mMTris.HCl buffer, pH 7.4 containing 0.25% heat inactivated bovine serum albumin (BSA):80 ul membrane protein (10 to 20 ug/assay) to wells already containing 100 ul of incubation buffer (as described above) and 20 ul [^125 I] (Sar^1,Ile^8) AngII (Specific Activity, 2200 Ci/mmole). Non-specific binding is measured in the presence of 1.0 uM unlabeled (Sar^1,Ile^8) AngII, added in 20 ul volume. Specific binding for [^125 I] (Sar^1,Ile^8) AngII is greater than 90%. In competition studies, experimental compounds are diluted in dimethylsulfoxide (DMSO) and added in 20 ul to wells before the introduction of tissue membranes. This concentration of DMSO is found to have no negative effects on the binding of [^125 I] (Sar^1,Ile^8) AngII to the membranes. Assays are performed in triplicate. […] Presoaking the filter sheet in 0.1% polyethylenemine in normal saline (PEI/Saline) greatly reduces the radioactivity retained by the filter blanks. […] The filters are removed from the filter grid and counted in a Parkard® Cobra Gamma Counter for 1 min. […] The binding data are analyzed by the non-linear interactive "LUNDON-1" program (LUNDON SOFTWARE Inc., Cleveland, Ohio U.S.A.). […]

[1] = system: ANGIOTENSIN II (A11) VASOPRESSOR RESPONSE; experiment: AII Challenge: blockade of angiotensin II vasopressor response in conscious SHR; format: in vivo, rat (Conscious Male Okamoto-Aoki SHR)
Text: By administering a compound of this invention to a rat, and then challenging with angiotensin II, a blockage of the vasopressor response is realized.
Conscious Male Okamoto-Aoki SHR, 16-20 weeks old, weighing approximately 330 g are purchased from Charles River Labs (Wilmington, Mass.). Conscious rats are restrained in a supine position with elastic tape. The area at the base of the tail is locally anesthetized by subcutaneous infiltration with 2% procaine. The ventral caudal artery and vein are isolated, and a cannula made of polyethylene (PE) 10-20 tubing (fused together by heat) is passed into the lower abdominal aorta and vena cava, respectively. The cannula is secured, heparinized (1,000 I.U./ml), sealed and the wound is closed. The animals are placed in plastic restraining cages in an upright position. The cannula is attached to a Statham P23Db pressure transducer, and pulsatile blood pressure is recorded to 10-15 minutes with a Gould Brush recorder. (Chan et al., (Drug Development Res., 18:75-94, 1989).
Angiotensin II (human sequence, Sigma Chem. Co., St. Louis, Mo.) of 0.05 and 0.1 ug/kg i.v. is injected into all rats (predosing response). Then a test compound, vehicle or a known angiotensin II antagonist is administered i.v., i.p. or orally to each set of rats. […] The vasopressor response of angiotensin II is measured for the increase in systolic blood pressure in mmHg. The percentage of antagonism or blockade of the vasopressor response of angiotensin II by a compound is calculated using the vasopressor response (increase in systolic blood pressure) of angiotensin II of each rat predosing the compound as 100%. A compound is considered active if at 30 mg/kg i.v. it antagonized at least 50% of the response.

[2] = 15 mg/kg IV, AII 0.05 mcg/kg IV, 30 min post dose
[3] = 15 mg/kg IV, AII 0.05 mcg/kg IV, 60 min post dose
[4] = 15 mg/kg IV, AII 0.05 mcg/kg IV, 90 min post dose
[5] = 15 mg/kg IV, AII 0.1 mcg/kg IV, 30 min post dose
[6] = 15 mg/kg IV, AII 0.1 mcg/kg IV, 60 min post dose
[7] = 15 mg/kg IV, AII 0.1 mcg/kg IV, 90 min post dose
[8] = under second '15 IV' line, AII 0.05 mcg/kg IV, 120 min
[9] = under second '15 IV' line, AII 0.05 mcg/kg IV, 180 min
[10] = under second '15 IV' line, AII 0.1 mcg/kg IV, 120 min
[11] = under second '15 IV' line, AII 0.1 mcg/kg IV, 180 min

IC50 (Angiotension II Receptor): 0.66 µM
Compound: CCCCc1nc2c(c(=O)n1Cc1ccc(-c3ccccc3-c3nnn[nH]3)cc1)CN(C(=O)OCc1ccccc1)CC2 [Example 7, Phenylmethyl 2-butyl-3,5,7,8-tetrahydro-4-oxo-3-[[2'-(1H-tetrazol-5-yl)[1,1' -biphenyl] -4-yl]methyl]pyrido[4,3-d]pyrimidin-6(4H)-carboxylate]
Average % Inhibition (angiotensin blockage) of AII vasopressor response [1, 2]: 71% | Average Change (systolic blood pressure response to AII) [1, 2]: 11 mmHg | Average % Inhibition (angiotensin blockage) of AII vasopressor response [1, 3]: 33% | Average Change (systolic blood pressure response to AII) [1, 3]: 25 mmHg | Change (single reading, systolic blood pressure) ([1]; 15 mg/kg IV, AII 0.05 mcg/kg IV, 60 min post dose, 15 mg/kg): 30 mmHg and 20 mmHg | Average % Inhibition (angiotensin blockage) of AII vasopressor response [1, 4]: 31% | Average Change (systolic blood pressure response to AII) [1, 4]: 26 mmHg | Change (single reading, systolic blood pressure) ([1]; 15 mg/kg IV, AII 0.05 mcg/kg IV, 90 min post dose, 15 mg/kg): 30 mmHg and 22 mmHg | Average % Inhibition (angiotensin blockage) of AII vasopressor response [1, 5]: 59% | Average Change (systolic blood pressure response to AII) [1, 5]: 17.5 mmHg | Change (single reading, systolic blood pressure) ([1]; 15 mg/kg IV, AII 0.1 mcg/kg IV, 30 min post dose, 15 mg/kg): 15 mmHg and 20 mmHg | Average % Inhibition (angiotensin blockage) of AII vasopressor response [1, 6]: 11% | Average Change (systolic blood pressure response to AII) [1, 6]: 38 mmHg | Change (single reading, systolic blood pressure) ([1]; 15 mg/kg IV, AII 0.1 mcg/kg IV, 60 min post dose, 15 mg/kg): 40 mmHg and 36 mmHg | Average % Inhibition (angiotensin blockage) of AII vasopressor response [1, 7]: 0% | Average Change (systolic blood pressure response to AII) [1, 7]: 42.5 mmHg | Change (single reading, systolic blood pressure) ([1]; 15 mg/kg IV, AII 0.1 mcg/kg IV, 90 min post dose, 15 mg/kg): 40 mmHg and 45 mmHg | Response After A11 (systolic blood pressure) ([1]; 15 mg/kg IV, after AII 0.05 mcg/kg IV, 30 min post dose, 15 mg/kg): 192 mmHg and 175 mmHg | Response After A11 (systolic blood pressure) ([1]; 15 mg/kg IV, after AII 0.05 mcg/kg IV, 60 min post dose, 15 mg/kg): 200 mmHg and 190 mmHg | Response After A11 (systolic blood pressure) ([1]; 15 mg/kg IV, after AII 0.05 mcg/kg IV, 90 min post dose, 15 mg/kg): 200 mmHg and 182 mmHg | Response After A11 (systolic blood pressure) ([1]; 15 mg/kg IV, after AII 0.1 mcg/kg IV, 30 min post dose, 15 mg/kg): 190 mmHg and 180 mmHg | Response After A11 (systolic blood pressure) ([1]; 15 mg/kg IV, after AII 0.1 mcg/kg IV, 60 min post dose, 15 mg/kg): 215 mmHg and 206 mmHg | Response After A11 (systolic blood pressure) ([1]; 15 mg/kg IV, after AII 0.1 mcg/kg IV, 90 min post dose, 15 mg/kg): 210 mmHg and 200 mmHg | Control Before A11 (systolic blood pressure) ([1]; 15 mg/kg IV, before AII 0.05 mcg/kg IV, 30 min post dose, 15 mg/kg): 185 mmHg and 160 mmHg | Control Before A11 (systolic blood pressure) ([1]; 15 mg/kg IV, before AII 0.05 mcg/kg IV, 60 min post dose): 170 mmHg | Control Before A11 (systolic blood pressure) ([1]; 15 mg/kg IV, before AII 0.05 mcg/kg IV, 90 min post dose, 15 mg/kg): 170 mmHg and 160 mmHg | Control Before A11 (systolic blood pressure) ([1]; 15 mg/kg IV, before AII 0.1 mcg/kg IV, 30 min post dose, 15 mg/kg): 175 mmHg and 160 mmHg | Control Before A11 (systolic blood pressure) ([1]; 15 mg/kg IV, before AII 0.1 mcg/kg IV, 60 min post dose, 15 mg/kg): 175 mmHg and 170 mmHg | Control Before A11 (systolic blood pressure) ([1]; 15 mg/kg IV, before AII 0.1 mcg/kg IV, 90 min post dose, 15 mg/kg): 170 mmHg and 155 mmHg | Average % Inhibition (angiotensin blockage) of AII vasopressor response [1, 8]: 87% | Average Change (systolic blood pressure response to AII) [1, 8]: 5 mmHg | Average % Inhibition (angiotensin blockage) of AII vasopressor response [1, 9]: 33% | Average Change (systolic blood pressure response to AII) [1, 9]: 25 mmHg | Change (single reading, systolic blood pressure) [1, 9]: 25 mmHg | Average % Inhibition (angiotensin blockage) of AII vasopressor response [1, 10]: 81% | Average Change (systolic blood pressure response to AII) [1, 10]: 8 mmHg | Change (single reading, systolic blood pressure) [1, 10]: 6 mmHg and 10 mmHg | Average % Inhibition (angiotensin blockage) of AII vasopressor response [1, 11]: 32% | Average Change (systolic blood pressure response to AII) [1, 11]: 29 mmHg | Change (single reading, systolic blood pressure) [1, 11]: 38 mmHg and 20 mmHg | Response After A11 (systolic blood pressure) ([1]; under second '15 IV' line, after AII 0.05 mcg/kg IV, 120 min): 195 mmHg and 185 mmHg | Response After A11 (systolic blood pressure) ([1]; under second '15 IV' line, after AII 0.05 mcg/kg IV, 180 min): 200 mmHg and 160 mmHg | Response After A11 (systolic blood pressure) ([1]; under second '15 IV' line, after AII 0.1 mcg/kg IV, 120 min): 176 mmHg and 180 mmHg | Response After A11 (systolic blood pressure) ([1]; under second '15 IV' line, after AII 0.1 mcg/kg IV, 180 min): 215 mmHg and 160 mmHg | Control Before A11 (systolic blood pressure) ([1]; under second '15 IV' line, before AII 0.05 mcg/kg IV, 120 min): 185 mmHg | Control Before A11 (systolic blood pressure) ([1]; under second '15 IV' line, before AII 0.05 mcg/kg IV, 180 min): 175 mmHg and 135 mmHg | Control Before A11 (systolic blood pressure) ([1]; under second '15 IV' line, before AII 0.1 mcg/kg IV, 120 min): 170 mmHg | Control Before A11 (systolic blood pressure) ([1]; under second '15 IV' line, before AII 0.1 mcg/kg IV, 180 min): 177 mmHg and 140 mmHg
